Read-outs that look alike come from different tables or passages of the source.
Biological target: T1, human TRPA1 (Homo sapiens, UniProt O75762)
T1 construct: expressed in transfected cells; host or cells: Human embryonic kidney-derived 293T cells, transiently transfected with the pcDNA3.1/zeo(+) human TRPA1 plasmid
Assay: Measurement of TRPA1 antagonist activity (intracellular calcium increase, FLIPR, allylisothiocyanate stimulation)
Format: cell-based
Conditions: read-out: antagonism hTRPA1
Text: Measurement of TRPA1 Antagonist Activity
Human TRPA1 Expression Plasmid
As cDNA encoding human TRPA1 (GenBank accession No. […]), a commercially available product was purchased (manufactured by Kazusa DNA Research Institute, clone No.: pFN21AB7348, item No.: FHC07217). Using this as a template, full-length human TRPA1 gene was amplified using the primer sequences shown below, by reaction using DNA polymerase (manufactured by Stratagene, trade name: PfuUltra High-Fidelity DNA Polymerase).
A recognition site (underlined) of restriction enzyme HindIII was added to the 5′ side, and XbaI site (underlined) was added to the 3′ side, and GTT of the template sequence was changed to termination codon TAG (bold). The obtained double stranded DNA was enzyme-digested with HindIII and XbaI, and introduced into a multicloning site of expression plasmid pcDNA3.1/zeo(+) (manufactured by Invitrogen) to give a human TRPA1 expression plasmid.
Human embryonic kidney-derived 293T cells were cultured in Dulbecco's Modified Eagle Medium containing 10% fetal bovine serum, 10 unit penicillin, and 10 μg streptomycin, plated on a petri dish having a diameter of 10 cm at 3×10^6 cells, and cultured for 24 hr. A medium containing a reduced amount of serum (manufactured by Invitrogen, trade name: OPTI-MEM, 600 μL), a gene insertion reagent (manufactured by Mirus Bio, trade name: Mirus TransIT-293, 18 μL), and human TRPA1 expression plasmid (6 μg) were mixed, the total amount of the mixture was added to the cells on the petri dish to allow for gene transfer. The cells were recovered about 8 hr later, plated on a poly-D-lysine coated 384 well black/clear bottom plate at 7,500-12,000 cells/well, and cultured overnight.
Measurement of Intracellular Calcium Increase
The 384 well plate was recovered, and the medium was removed. A calcium-bonded fluorescent indicator (manufactured by Molecular Device, trade name: Calcium4 Assay Kit, 40 μL) dissolved in assay buffer (1×HBSS, 20 mM HEPES, pH 7.2) was added, and the cells were stained in a 37° C. incubator for 1 hr. The cells were taken out at room temperature and left standing for 15 min or more. A test substance (10 μL) was added by a 384 well type dispenser, and the mixture was incubated at room temperature for 10 min. Then, allylisothiocyanate (12.5 μL) at a final concentration of 20 μM was added by a fluorescence imaging plate reader (manufactured by Molecular Device, FLIPR), and changes in the relative fluorescence intensity were measured for 5 min.
Test Substance Preparation
The test substance was dissolved in dimethyl sulfoxide and serially diluted with an assay buffer containing 0.1% bovine serum albumin (1×HBSS, 20 mM HEPES, pH 7.2) to a 5-fold concentration of the evaluation concentration. Allylisothiocyanate, which is a known TRPA1 activator, was dissolved in dimethyl sulfoxide to 100 mM, and further diluted 5-fold (100 μM) of the final concentration, like the test substance.
Calculation of Antagonist Activity
Under the test substance-free conditions, the maximum variation range of the fluorescence intensity before and after allylisothiocyanate stimulation was defined to be 100% activity rate, and the variation range before and after buffer stimulation was defined as 0% activity rate. The activity rate on addition of the test substance was determined, and the numerical value obtained by subtracting the activity rate from 100 was defined to be an inhibitory rate. 1050, which is the concentration of the test substance necessary for reaching the 50% inhibitory rate, was calculated from the sigmoid approximate curve by a spreadsheet software Excel-Fit.

[1] = allylisothiocyanate 20 μM stimulation, FLIPR calcium assay
[2] = 293T cells transfected with human TRPA1, allylisothiocyanate 20 μM, concentration for 50% inhibitory rate

T1 sequence (O75762 whole entry): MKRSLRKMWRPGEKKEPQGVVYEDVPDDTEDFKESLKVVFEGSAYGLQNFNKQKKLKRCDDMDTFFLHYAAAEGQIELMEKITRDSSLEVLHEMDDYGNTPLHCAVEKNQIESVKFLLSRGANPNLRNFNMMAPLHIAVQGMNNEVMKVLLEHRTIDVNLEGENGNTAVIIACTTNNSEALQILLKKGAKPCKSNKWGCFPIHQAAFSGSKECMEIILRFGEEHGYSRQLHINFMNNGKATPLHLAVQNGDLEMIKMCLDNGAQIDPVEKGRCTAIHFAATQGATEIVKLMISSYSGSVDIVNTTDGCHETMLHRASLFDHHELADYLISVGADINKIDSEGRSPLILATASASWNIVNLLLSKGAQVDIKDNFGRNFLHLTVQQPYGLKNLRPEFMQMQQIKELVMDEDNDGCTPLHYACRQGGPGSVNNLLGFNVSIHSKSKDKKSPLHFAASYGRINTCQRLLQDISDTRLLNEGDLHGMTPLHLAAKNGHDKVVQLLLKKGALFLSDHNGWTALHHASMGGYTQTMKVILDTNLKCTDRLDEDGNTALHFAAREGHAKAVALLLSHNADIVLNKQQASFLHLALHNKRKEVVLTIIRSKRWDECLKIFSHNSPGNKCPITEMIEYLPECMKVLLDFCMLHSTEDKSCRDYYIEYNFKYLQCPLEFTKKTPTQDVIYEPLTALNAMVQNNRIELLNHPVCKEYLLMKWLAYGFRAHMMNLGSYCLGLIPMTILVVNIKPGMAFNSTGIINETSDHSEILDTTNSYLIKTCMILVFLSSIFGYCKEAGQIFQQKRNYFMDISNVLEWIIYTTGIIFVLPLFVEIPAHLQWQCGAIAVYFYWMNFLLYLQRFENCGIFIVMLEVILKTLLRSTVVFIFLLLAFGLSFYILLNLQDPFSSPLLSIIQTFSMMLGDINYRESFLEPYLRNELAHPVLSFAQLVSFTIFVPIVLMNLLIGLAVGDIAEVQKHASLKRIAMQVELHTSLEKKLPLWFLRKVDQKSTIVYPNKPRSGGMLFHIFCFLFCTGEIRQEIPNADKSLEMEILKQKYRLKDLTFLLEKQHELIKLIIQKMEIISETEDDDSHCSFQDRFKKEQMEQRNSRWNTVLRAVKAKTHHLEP

IC50 [1] [nM]	IC50 [2] [nM]	Compound
640		CN(C)c1ccccc1COc1cccc(CNC(=O)[C@@H]2CCCN2S(=O)(=O)c2ccc(F)cc2)c1 [Example 129, (2S)-N-[[3-[[2-(dimethylamino)phenyl]methoxy]phenyl]methyl]-1-(4-fluorophenyl)sulfonyl-pyrrolidine-2-carboxamide]
260		O=C(NCc1cccc(OCc2ccc(C(F)(F)F)cc2)c1)[C@@H]1CCCN1S(=O)(=O)c1cccc(Cl)c1 [Example 193, (2S)-1-(3-chlorophenyl)sulfonyl-N-[[3-[[4-(trifluoromethyl)phenyl]methoxy]phenyl]methyl]pyrrolidine-2-carboxamide]
120		O=C(NCc1cccc(OCc2ccc(C(F)(F)F)cc2)c1)[C@@H]1[C@H]2CC[C@H](C2)N1S(=O)(=O)c1ccc(F)cc1 [Example 214, (1S,2S,4R)-3-(4-fluorophenyl)sulfonyl-N-[[3-[[4-(trifluoromethyl)phenyl]methoxy]phenyl]methyl]-3-azabicyclo[2.2.1] heptane-2-carboxamide]
	440	O=C(NCc1ccc(COc2ccccc2F)cc1)[C@@H]1CCCN1S(=O)(=O)c1ccc(Cl)s1 [Example 63, (2S)-1-(5-chlorothiophene-2-sulfonyl)-N-({4-[(2-fluoro-phenoxy)methyl]phenyl}methyl)pyrrolidine-2-carboxamide]
1000		CC(C)(C)c1ccc(Oc2cccc(CNC(=O)[C@@H]3CCCN3S(=O)(=O)c3ccc(F)cc3)c2)cc1 [Example 119, (2S)-N-[[3-(4-tert-butylphenoxy)phenyl]methyl]-1-(4-fluorophenyl)sulfonyl-pyrrolidine-2-carboxamide]
20		O=C(NCc1cccc(OCc2ccc(F)c(F)c2)c1)[C@@H]1CCCN1S(=O)(=O)c1ccc(F)cc1 [Example 130, (2S)-N-[[3-[(3,4-difluorophenyl)methoxy]phenyl]methyl]-1-(4-fluorophenyl)sulfonyl-pyrrolidine-2-carboxamide]
	76	O=C(NCc1cccc(Oc2ccc(C(F)(F)F)cc2)c1)[C@@H]1CCCN1S(=O)(=O)c1ccc(Cl)cc1 [Example 38, (2S)-1-(4-chlorophenyl)sulfonyl-N-({3-[4-(trifluoro-methyl)phenoxy]phenyl}methyl)pyrrolidine-2-carboxamide]
	310	O=C(NCc1ccc(COc2ccccc2)cc1)[C@@H]1CCCN1S(=O)(=O)c1ccc(Cl)s1 [Example 41, (2S)-1-(5-chlorothiophene-2-sulfonyl)-N-{[4-(phenoxymethyl)phenyl]methyl}pyrrolidine-2-carboxamide]
14		O=C(NCc1cccc(OCc2ccc(Cl)c(F)c2)c1)[C@@H]1CCCN1S(=O)(=O)c1ccc(F)cc1 [Example 131, (2S)-N-[[3-[(4-chloro-3-fluoro-phenyl)methoxy]phenyl]methyl]-1-(4-fluorophenyl)sulfonyl-pyrrolidine-2-carboxamide]
190		CC(Oc1cccc(CNC(=O)[C@@H]2CCCN2S(=O)(=O)c2ccc(F)cc2)c1)c1ccccc1 (stereo in doubt) [Example 143, (2S)-1-(4-fluorophenyl)sulfonyl-N-[[3-[(1R)-1-phenylethoxy]phenyl]methyl]pyrrolidine-2-carboxamide]
	110	O=C(NCc1ccc(OCc2ccc(C(F)(F)F)cc2)cc1)[C@@H]1CCCN1S(=O)(=O)c1ccc(Cl)s1 [Example 92]
150		O=C(NCc1cccc(OCc2ccc(C(F)(F)F)cc2)c1)[C@@H]1CCCN1S(=O)(=O)c1ccc2nsnc2c1 [Example 210, (2S)-1-(2,1,3-benzothiadiazol-5-ylsulfonyl)-N-[[3-[[4-(trifluoromethyl)phenyl]methoxy]phenyl]methyl]pyrrolidine-2-carboxamide]
240		O=C(NCc1cccc(OCc2ccc(C(F)(F)F)cc2)c1)[C@@H]1[C@@H](O)CCN1S(=O)(=O)c1ccc(F)cc1 [Example 167, (2S,3S)-1-(4-fluorophenyl)sulfonyl-3-hydroxy-N-[[3-[[4-(trifluoromethyl)phenyl]methoxy]phenyl]methyl]pyrrolidine-2-carboxamide]
	580	O=C(NCc1ccccc1COc1cccc(C(F)(F)F)c1)[C@@H]1CCCN1S(=O)(=O)c1ccc(Cl)s1 [Example 81]
	140	O=C(NCc1ccc(COc2cccc(C(F)(F)F)c2)cc1Cl)[C@@H]1CCCN1S(=O)(=O)c1ccc(Cl)s1 [Example 75]
170		Cc1ccc(S(=O)(=O)N2CCC[C@H]2C(=O)NCc2cccc(OCc3ccc(C(F)(F)F)cc3)c2)o1 [Example 203, (2S)-1-[(5-methyl-2-foryl)sulfonyl]-N-[[3-[[4-(trifluoromethyl)phenyl]methoxy]phenyl]methyl]pyrrolidine-2-carboxamide]
	150	O=C(NCc1nc(COc2ccccc2C(F)(F)F)cs1)[C@@H]1CCCN1S(=O)(=O)c1ccc(Cl)s1 [Example 90]
	130	O=C(NCc1cccc(Oc2ccc(F)cc2)c1)[C@@H]1CCCN1S(=O)(=O)c1ccc(Cl)s1 [Example 18, (2S)-1-(5-chlorothiophene-2-sulfonyl)-N-{[3-(4-fluoro-phenoxy)phenyl]methyl}pyrrolidine-2-carboxamide]
	100	O=C(NCc1ccc(Oc2ccc(Cl)cc2)cc1)[C@@H]1CCCN1S(=O)(=O)c1ccc(Cl)s1 [Example 4, (2S)-N-{[4-(4-chlorophenoxy)phenyl]methyl}-1-(5-chlorothiophene-2-sulfonyl)pyrrolidine-2-carboxamide]
110		O=C(NCc1cccc(OCc2cccs2)c1)[C@@H]1CCCN1S(=O)(=O)c1ccc(F)cc1 [Example 142, (2S)-1-(4-fluorophenyl)sulfonyl-N-[[3-(2-thienylmethoxy)phenyl]methyl]pyrrolidine-2-carboxamide]
460		O=C(NCc1ccc(Oc2cccc(C(F)(F)F)c2)cc1)[C@@H]1CCCN1S(=O)(=O)c1ccco1 [Example 152, (2S)-1-(2-furylsulfonyl)-N-[[4-[3-(trifluoromethyl)phenoxy]phenyl]methyl]pyrrolidine-2-carboxamide]
	310	O=C(NCc1ccc(COc2cc(F)cc(F)c2)cc1)[C@@H]1CCCN1S(=O)(=O)c1ccc(Cl)s1 [Example 57, (2S)-1-(5-chlorothiophene-2-sulfonyl)-N-({4-[(3,5-difluoro-phenoxy)methyl]phenyl}methyl)pyrrolidine-2-carboxamide]
	670	Cc1ccc(OCc2ccc(CNC(=O)[C@@H]3CCCN3S(=O)(=O)c3ccc(Cl)s3)cc2)cc1 [Example 44, (2S)-1-(5-chlorothiophene-2-sulfonyl)-N-({4-[(4-methyl-phenoxy)methyl]phenyl}methyl)pyrrolidine-2-carboxamide]
	130	O=C(NCc1ccc(Oc2ccc(F)cc2)cc1)[C@@H]1CCCN1S(=O)(=O)c1ccc(Cl)s1 [Example 5, (2S)-1-(5-chlorothiophene-2-sulfonyl)-N-{[4-(4-fluorophenoxy)phenyl]methyl)pyrrolidine-2-carboxamide]
1000		O=C(NCc1ccc(Oc2ccnc(C(F)(F)F)c2)cc1)[C@@H]1CCCN1S(=O)(=O)c1ccsc1 [Example 156, (2S)-1-(3-thienylsulfonyl)-N-[[4-[[2-(trifluoromethyl)-4-pyridyl]oxy]phenyl]methyl]pyrrolidine-2-carboxamide]

Compound	IC50 [1] [nM]	IC50 [2] [nM]
CC(C)(C)Oc1ccc(OCc2ccc(CNC(=O)[C@@H]3CCCN3S(=O)(=O)c3ccc(Cl)s3)cc2)cc1 [Example 51, (2S)-N-({4-[(4-tert-butoxyphenoxy)methyl]phenyl}methyl)-1-(5-chlorothiophene-2-sulfonyl)pyrrolidine-2-carboxamide]		630

From US20150284375A1 (AJINOMOTO CO., INC., priority 2012, published 2015)
